{"source": "patent US6831041B2", "about": "“Oil suspension concentrates based on a cyclohexenone oxime ether lithium salt and the use thereof as plant protection agents” (BASF Aktiengesellschaft, priority 2000, dated 2004)", "origin": "cited, not measured here", "conditions": "formulated together with calcium glyphosate as oil suspension concentrate", "data": [{"smiles": "CCCC(CC(C)=NOCC=CCl)C1=C(O)CC(C2CCCOC2)CC1=O", "note": "(stereo not shown) [2-{1-[2-(3-chloroallyloxy)iminopropyl]-butyl}-3-hydroxy-5-(tetrahydropyran-3-yl)cyclohex-2-enone]", "values": [{"measurement": "stability in formulation (in words)", "value": "insufficient stability"}]}]}
